Results reported in patent US10582709B2, “Butyrolactones as herbicides” (FMC Corporation, priority 2015, dated 2020).

What was measured:
Type in all cases: in vivo
[1] = test system: barnyardgrass (Echinochloa crus-galli); experiment: Test A preemergence, barnyardgrass; settings: 1000 g ai/ha, visual rating after approx. 10 d, 0 to 100 scale, 0 no effect, 100 complete control
Summary of the method: (§1)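 Seeds in loam–sand blend received a preemergence directed soil spray; postemergence sprays went on plants 2–10 cm tall at the one- to two-leaf stage. Compounds were in non-phytotoxic solvent with surfactant. After ~10 d in greenhouse, injury was rated visually versus untreated controls, 0 (no effect) to 100 (complete control).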

[2] = test system: crabgrass (large crabgrass, Digitaria sanguinalis); experiment: Test A preemergence, crabgrass; settings: 1000 g ai/ha, visual rating after approx. 10 d, 0 to 100 scale, 0 no effect, 100 complete control
Excerpt: (§2) Seeds of plant species selected from barnyardgrass (Echinochloa crus-galli), crabgrass (large crabgrass, Digitaria sanguinalis), kochia (Kochia scoparia), ragweed (common ragweed, Ambrosia elatior), morningglory (Ipomoea spp.), velvetleaf (Abutilon theophrasti), ryegrass, Italian (Italian ryegrass, Lolium multiflorum), foxtail, giant (giant foxtail, Setaria faberii), wheat (Triticum aestivum), corn (Zea mays), and pigweed (Amaranthus retroflexus), were planted into a blend of loam soil and sand and treated preemergence with a directed soil spray using test chemicals formulated in a non-phytotoxic solvent mixture which included a surfactant. At the same time, plants selected from these crop and weed species and also blackgrass (Alopecurus myosuroides), and galium (catchweed bedstraw, Galium aparine), were planted in pots containing the same blend of loam soil and sand and treated with postemergence applications of test chemicals formulated in the same manner. Plants ranged in height from 2 to 10 cm and were in the one- to two-leaf stage for the postemergence treatment. Treated plants and untreated controls were maintained in a greenhouse for approximately 10 d, after which time all treated plants were compared to untreated controls and visually evaluated for injury. Plant response ratings, summarized in Table A, are based on a 0 to 100 scale where 0 is no effect and 100 is complete control. A dash (-) response means no test result.

[3] = test system: morningglory (Ipomoea spp.); experiment: Test A preemergence, morningglory; settings: 1000 g ai/ha, visual rating after approx. 10 d, 0 to 100 scale, 0 no effect, 100 complete control
Excerpt: as §2

[4] = test system: velvetleaf (Abutilon theophrasti); experiment: Test A preemergence, velvetleaf; settings: 1000 g ai/ha, visual rating after approx. 10 d, 0 to 100 scale, 0 no effect, 100 complete control
Excerpt: as §2

[5] = test system: foxtail, giant (giant foxtail, Setaria faberii); experiment: Test A preemergence, giant foxtail; settings: 1000 g ai/ha, visual rating after approx. 10 d, 0 to 100 scale, 0 no effect, 100 complete control
Summary of the method: as §1

[6] = test system: wheat (Triticum aestivum); experiment: Test A preemergence, wheat; settings: 1000 g ai/ha, visual rating after approx. 10 d, 0 to 100 scale, 0 no effect, 100 complete control
Excerpt: as §2

corn (Zea mays) [7] = experiment: Test A preemergence, corn; settings: 1000 g ai/ha, visual rating after approx. 10 d, 0 to 100 scale, 0 no effect, 100 complete control
Excerpt: as §2

[8] = test system: pigweed (Amaranthus retroflexus); experiment: Test A preemergence, pigweed; settings: 1000 g ai/ha, visual rating after approx. 10 d, 0 to 100 scale, 0 no effect, 100 complete control
Summary of the method: as §1

[9] = test system: barnyardgrass (Echinochloa crus-galli); experiment: Test A postemergence, barnyardgrass; settings: 1000 g ai/ha, visual rating after approx. 10 d, 0 to 100 scale, 0 no effect, 100 complete control
Summary of the method: as §1

[10] = test system: crabgrass (large crabgrass, Digitaria sanguinalis); experiment: Test A postemergence, crabgrass; settings: 1000 g ai/ha, visual rating after approx. 10 d, 0 to 100 scale, 0 no effect, 100 complete control
Excerpt: as §2

[11] = test system: morningglory (Ipomoea spp.); experiment: Test A postemergence, morningglory; settings: 1000 g ai/ha, visual rating after approx. 10 d, 0 to 100 scale, 0 no effect, 100 complete control
Excerpt: as §2

[12] = test system: velvetleaf (Abutilon theophrasti); experiment: Test A postemergence, velvetleaf; settings: 1000 g ai/ha, visual rating after approx. 10 d, 0 to 100 scale, 0 no effect, 100 complete control
Excerpt: as §2

[13] = test system: foxtail, giant (giant foxtail, Setaria faberii); experiment: Test A postemergence, giant foxtail; settings: 1000 g ai/ha, visual rating after approx. 10 d, 0 to 100 scale, 0 no effect, 100 complete control
Summary of the method: as §1

[14] = test system: wheat (Triticum aestivum); experiment: Test A postemergence, wheat; settings: 1000 g ai/ha, visual rating after approx. 10 d, 0 to 100 scale, 0 no effect, 100 complete control
Summary of the method: as §1

corn (Zea mays) [15] = experiment: Test A postemergence, corn; settings: 1000 g ai/ha, visual rating after approx. 10 d, 0 to 100 scale, 0 no effect, 100 complete control
Summary of the method: as §1

[16] = test system: pigweed (Amaranthus retroflexus); experiment: Test A postemergence, pigweed; settings: 1000 g ai/ha, visual rating after approx. 10 d, 0 to 100 scale, 0 no effect, 100 complete control
Summary of the method: as §1

[17] = test system: barnyardgrass (Echinochloa crus-galli); experiment: Test B flooded paddy test, barnyardgrass; settings: 250 g ai/ha; applied to paddy water at 2-leaf stage; 13 to 15 d; scale 0 no effect to 100 complete control
Summary of the method: (§3)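 Plants at the 2-leaf stage were flooded to 3 cm above soil, and test compounds were applied directly into the paddy water, which was held at that depth throughout. After 13 to 15 d in a greenhouse, injury was rated visually against untreated controls on a 0–100 scale (0 no effect, 100 complete control).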

[18] = test system: ducksalad (Heteranthera limosa); experiment: Test B flooded paddy test, ducksalad; settings: 250 g ai/ha; applied to paddy water at 2-leaf stage; 13 to 15 d; scale 0 no effect to 100 complete control
Summary of the method: as §3

rice (Oryza sativa) = experiment: Test B flooded paddy test, rice; settings: 250 g ai/ha; applied to paddy water at 2-leaf stage; 13 to 15 d; scale 0 no effect to 100 complete control
Summary of the method: as §3

[19] = test system: sedge, umbrella (small-flower umbrella sedge, Cyperus difformis); experiment: Test B flooded paddy test, umbrella sedge; settings: 250 g ai/ha; applied to paddy water at 2-leaf stage; 13 to 15 d; scale 0 no effect to 100 complete control
Summary of the method: as §3

Compound	Plant response rating, Barnyardgrass [1]	Plant response rating, Crabgrass [2]	Plant response rating, Morningglory [3]	Plant response rating, Velvetleaf [4]	Plant response rating, Foxtail, Giant [5]	Plant response rating, Wheat [6]	Plant response rating, Corn (corn (Zea mays) [7])	Plant response rating, Pigweed [8]	Plant response rating, Barnyardgrass [9]	Plant response rating, Crabgrass [10]	Plant response rating, Morningglory [11]	Plant response rating, Velvetleaf [12]	Plant response rating, Foxtail, Giant [13]	Plant response rating, Wheat [14]	Plant response rating, Corn (corn (Zea mays) [15])	Plant response rating, Pigweed [16]	Plant response rating, Flood, Barnyardgrass [17]	Plant response rating, Flood, Ducksalad [18]	Plant response rating, Flood, Rice (rice (Oryza sativa))	Plant response rating, Flood, Sedge, Umbrella [19]
Cc1ccccc1NC(=O)C1C(=O)OCC1c1ccc(F)cc1 (racemic) [Compound 5]	60	80	0	0	70	0	0	0	50	80	0	0	60	0	0	0	–	–	–	–
O=C(Nc1ccccc1F)C1C(=O)OCC1c1ccc(F)cc1 (racemic) [Compound 2]	30	80	0	0	50	0	0	0	0	40	0	0	0	0	0	0	–	–	–	–
O=C(Nc1ccccc1F)C1C(=O)OCC1c1ccc(F)c(F)c1 (racemic) [Compound 4]	70	90	0	0	80	0	0	0	70	90	0	0	70	0	–	0	20	0	15	0
